The values below come from publication PMC11413682 (Acta Pharmaceutica Sinica. B, 2024).

Like-named read-outs stand apart in the source and are kept apart here. Residues, ends and D or L forms follow the SMILES beside them. No end group written: not given here.

This experiment deals with T1, CUL2^ZYG11B (residues 490–728) (Homo sapiens, UniProt Q9C0D3).
T1 construct: PCR was used to amplify CUL2^ZYG11B (residues 490–728); 6×His-SUMO (TEV-cleavable) (N, cleaved yes); made in house; host or cells: E. coli
T1 sequence (Q9C0D3 490-728): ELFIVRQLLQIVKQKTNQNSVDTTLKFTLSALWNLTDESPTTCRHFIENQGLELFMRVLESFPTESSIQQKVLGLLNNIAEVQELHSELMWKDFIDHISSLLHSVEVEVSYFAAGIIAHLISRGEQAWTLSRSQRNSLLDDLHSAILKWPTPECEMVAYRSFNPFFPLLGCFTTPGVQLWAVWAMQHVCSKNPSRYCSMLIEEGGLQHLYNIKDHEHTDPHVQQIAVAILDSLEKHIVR
Put plainly: ITC binding of ORF10 NTE synthetic peptides to CUL2^ZYG11B.

[1] abbreviates: figure panels, […], repeated 3 times, read-out: Kd.

The Kd is the constant that tells how readily two partners part at equilibrium. On to SYINV [SARS-2 ORF10 N5-G1S], for which binding was characterised by a dissociation constant (Kd) of 13.2 µM. With “GPINV [SARS-2 ORF10 N5-Y2P, altered peptide derived from SARS-CoV-2 ORF10 N5, Y2P]”, the “binding to CUL2^ZYG11B (in words)” value (ITC) is given as “disrupted binding completely”. Regarding `CC[C@H](C)[C@H](NC(=O)[C@H](Cc1ccc(O)cc1)NC(=O)CN)C(=O)O` [SARS-2 ORF10 N3] (H-Gly-Tyr-Ile-OH), under setting [1], the Kd amounted to 14.5 µM. Regarding `NCC(=O)N[C@@H](Cc1ccc(O)cc1)C(=O)O` [SARS-2 ORF10 N2] (H-Gly-Tyr-OH; N-terminus and C-terminus assumed), the Kd is more than 200 µM. Moreover, the “binding to CUL2^ZYG11B (in words)” value (ITC) was “did not bind”. Also, where the note is “Table S4, ITC”, the “N, stoichiometry” value came out at 5.05 and the “ΔS, entropy variation” value is reported as 6.52 cal/mole/deg. Turning to GAINV [SARS-2 ORF10 N5-Y2A], the Kd under setting [1] was found to be 25.2 µM.

As to `CC[C@H](C)[C@H](NC(=O)[C@H](Cc1ccc(O)cc1)NC(=O)CN)C(=O)N[C@@H](CC(N)=O)C(=O)O` [SARS-2 ORF10 N4] (H-GYIN-OH), under setting [1], the Kd amounted to 5.18 µM. With “GFWCR [SNX11-degron-5, reference compound]”, the Kd (Table S4, ITC, MicroCal iTC200, peptide 0.5–1 mmol/L in syringe, protein 0.03 mmol/L in cell, 18 x 2 μL injections, repeated 3 times, Kd calculated as 1/Ka, read-out: Kd) is 0.4 µM.
